From ChEMBL document CHEMBL1201862, “PubChem BioAssay data set” (2004)
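Five concentrations, 48 hours, 96-well plates. GI50 marks 50% less growth.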 Active and inactive are the calls of the source. Rule as the data show it: active = GI50 up to about 1.1 µM and inactive = higher.

Assays:
Experiment in all cases: NCI anticancer screen, dose series, 48 h
[1] = test system: NCI-H460
[2] = test system: SK-OV-3
[3] = test system: SW-620
[4] = test system: NCI-H226
[5] = test system: CAKI-1
[6] = test system: KM12
[7] = test system: UO-31
[8] = test system: UACC-257
[9] = test system: A549
[10] = test system: ACHN
[11] = test system: DLD-1
[12] = test system: HOP-92
[13] = test system: OVCAR-4
[14] = test system: CCRF-CEM
[15] = test system: M14
[16] = test system: EKVX
[17] = test system: SNB-75
[18] = test system: IGROV-1

Measured: GI50

O=c1ncccn1C1C=C(CO)C(O)C1O (configuration not stated)
inactive: [1] > 50 µM | [2] > 50 µM | [3] > 50 µM | [4] > 50 µM | [5] > 50 µM | [6] > 50 µM | [7] > 50 µM | [8] > 50 µM | [9] > 50 µM | [10] > 50 µM | [11] > 50 µM | [12] > 50 µM | [13] > 50 µM | [14] > 50 µM | [15] > 50 µM | [16] > 50 µM

NC(=O)CCC(NC(=O)Cc1ccccc1)C(=O)O (configuration not stated)
inactive: [2] > 2470 µM | [17] 724 µM | [3] > 2470 µM | [5] 1280 µM | [6] > 2470 µM | [7] 667 µM | [18] 1610 µM | [9] > 2470 µM | [11] > 2470 µM | [12] 1060 µM | [13] 1390 µM | [14] 2320 µM | [15] > 2470 µM | [16] > 2470 µM

O=C1Oc2cc3c(c4cccc1c24)OCN(c1ccccc1)C3
inactive: [1] > 100 µM | [2] > 100 µM | [17] > 100 µM | [3] 83.9 µM | [5] 78.3 µM | [6] > 100 µM | [7] > 100 µM | [8] > 100 µM | [18] > 100 µM | [9] > 100 µM | [10] > 100 µM | [11] > 100 µM | [12] 41.7 µM | [13] > 100 µM | [14] 29.1 µM | [15] > 100 µM | [16] > 100 µM

CC(C)CN1CC(C)C(=O)NC1=O (configuration not stated)
inactive: [1] > 100 µM | [2] > 100 µM | [3] > 100 µM | [4] > 100 µM | [5] > 100 µM | [6] > 100 µM | [7] > 100 µM | [8] > 100 µM | [9] > 100 µM | [10] > 100 µM | [11] > 100 µM | [12] > 100 µM | [13] > 100 µM | [14] > 100 µM | [16] > 100 µM

CCOC(=O)NC(=O)c1cn(-c2ccc(CCOC(=O)CCCCCCCCC(=O)OCCc3ccc(-n4cc(C(=O)NC(=O)OCC)c(=O)[nH]c4=O)cc3)cc2)c(=O)[nH]c1=O
inactive: [1] > 100 µM | [2] > 100 µM | [3] > 100 µM | [4] > 100 µM | [6] > 100 µM | [7] > 100 µM | [8] > 100 µM | [18] 76.4 µM | [9] > 100 µM | [10] > 100 µM | [11] > 100 µM | [12] 26 µM | [13] > 100 µM | [14] > 100 µM | [15] > 100 µM | [16] > 100 µM

COc1c(CC(C)=O)c2ccccc2n1C(C)=O
inactive: [1] > 100 µM | [2] > 100 µM | [17] > 100 µM | [3] > 100 µM | [5] > 100 µM | [6] > 100 µM | [7] > 100 µM | [8] > 100 µM | [18] > 100 µM | [9] > 100 µM | [10] > 100 µM | [11] > 100 µM | [12] > 100 µM | [13] > 100 µM | [14] > 100 µM | [15] > 100 µM | [16] > 100 µM

CC1=C(NC(=O)/C(=N/NC(=S)NN)C2C(=O)CC(C)(C)CC2=O)C(=O)c2ccccc2C1=O
inactive: [1] 17.7 µM | [2] 19.8 µM | [17] 21.6 µM | [3] 8.49 µM | [4] 14 µM | [5] 20.7 µM | [6] 7.03 µM | [7] 12.8 µM | [8] 3.43 µM | [18] 5.21 µM | [9] 9.4 µM | [10] 13.3 µM | [11] 4.48 µM | [13] 13.7 µM | [14] 3.56 µM | [15] 6.47 µM | [16] 15.7 µM
